Test results from patent US20140037604A1, “NUTRITIONAL COMPOSITIONS COMPRISING ALPHA-HYDROXYISOCAPROIC ACID” (NESTEC S.A., priority 2011, published 2014).
“Also recorded” adds a separate entry of the source.

Columns and labels:
[1] = system: protein synthesis in gastrocnemius, liver and heart; test: In vivo rate of tissue protein synthesis, flooding-dose technique with [3H]-L-phenylalanine; parameters: species or system male Wistar rats; conditions: for Immobilization (casting)-induced decrease in muscle protein synthesis: gastrocnemius, 7 days of immobilization
Procedure: (§1) Water was provided ad libitum.
The in vivo rate of protein synthesis in gastrocnemius, liver and heart (ventricle only) was determined using the flooding-dose technique, exactly as described (Vary T C and Lang C H, Assessing effects of alcohol consumption on protein synthesis in striated muscles. Methods Mol Biol 447: 343-355, 2008). A P-50 catheter was placed in the left carotid artery for the withdrawal of blood. Rats were injected intravenously (IV) with [^3H]-L-phenylalanine (Phe; 150 mM, 30 μCi/ml; 1 ml/100 g body weight) and blood was collected 15 min later for determining the plasma Phe concentration and radioactivity. Thereafter, tissues were rapidly excised and a portion freeze-clamped and then stored at −70° C. The rate of protein synthesis was calculated by dividing the amount of radioactivity incorporated into protein by the plasma Phe specific radioactivity. The specific radioactivity of the plasma Phe was measured by high performance liquid chromatography (HPLC) analysis of supernatant from trichloroacetic acid (TCA) extracts of plasma. In addition, samples of fresh muscle were homogenized for Western blot and analysis of selected proteins and another piece of tissue used for qRT-PCR, as described below.

[2] = Blood chemistry profile, metabolic substrates and hormone (serum); format: in vivo, male Wistar rats
Procedure: (§2) Blood was collected from the arterial catheter while rats were anesthetized and prior to injection of [^3H]-Phe. Blood was dispensed to determine standard hematological and biochemical endpoints. For hematology analyses, 250-500 μl of blood was dispensed to tubes containing EDTA (BD No. 365974; Fisher Scientific). Hematology analyses (Heska CBC-Diff Hematology Analyzer, Loveland, Colo.) included: red and white blood cell counts, hematocrit, hemoglobin, platelets, and differential leukocyte counts. Reticulocytes were counted manually using methylene blue stain. In addition, 900 μl blood was dispensed to a tube containing 100 μl of 0.109 M sodium citrate (BD Medical No. 363083; Fisher Scientific) for measurement of prothrombin time (BBL Fibrometer System, Cockeysville, Md.). The remaining blood was dispensed to a silicone-coated collection tube (BD No. 366381; Fisher Scientific) and allowed to clot. Clotted blood samples were centrifuged in a Beckman Coulter Allegra X-12R centrifuge at 3500 rpm for 5 min at 4° C., and the serum was collected and stored. Biochemical analyses on serum was performed on a Cobas Mira Plus Chemistry Analyzer (Diamond Diagnostics, Holliston, Mass.) and included: total bilirubin, glucose, aspartate aminotransferase, alanine aminotransferase, lactate dehydrogenase, albumin, calcium, creatinine, urea, phosphate, total cholesterol, chloride, and total protein. Serum sodium and potassium were analyzed by flame photometer (IL940; Instrumentation Laboratory, Lexington, Mass.). Triglycerides and free fatty acids (FFAs) were determined colorimetrically (Abcam, Cambridge, Mass.; Wako Diagnostics, Richmond, Va., respectively). Insulin was determined by ELISA (Alpco diagnostics, Salem, N.H.). The homeostatic model assessment of insulin resistance (HOMA-IR) was calculated to provide an estimate of whole-body insulin resistance (Turner R C, Holman R R, Matthews D, Hockaday T D and Peto J. Insulin deficiency and insulin resistance interaction in diabetes: estimation of their relative contribution by feedback analysis from basal plasma insulin and glucose concentrations. Metabolism 28: 1086-1096,1979).

[3] = Hematological profile; format: in vivo, male Wistar rats; conditions: means ± SEM
Procedure: as §2

[4] = system: gastrocnemius of hindlimb-immobilized rats; test: Muscle atrophy and recovery after unilateral hindlimb immobilization (gastrocnemius weight); format: in vivo, male Wistar rats
Excerpt: as §1

[5] = Organ weights of rats fed supplemented diets
Excerpt: Animal protocols. The experiments described herein were broadly organized into two experimental series. Both studies used male Wistar rats (Charles River Breeding Laboratories, Cambridge, Mass.) which acclimated for 1 week in a controlled environment. Rats were shipped at 350-375 g and were approximately 12 wks of age. Water and standard rat chow were provide ad libitum.
The following custom diets were commercially prepared (Dytes, Bethlehem, Pa.): control diet (AIN93M), or isocaloric, isonitrogenous diets supplemented with α-hydroxy-isocaproic acid (HICA) or leucine (Leu) (Table 1). […] Therefore, animals were provided the dietary intervention for a period of 6 days prior to hindlimb immobilization.
The foot was positioned in plantar-flexion to induce maximal atrophy of the gastrocnemius and rats received 10 ml of 0.9% warmed (37° C.) sterile saline for resuscitation. […] Consequently, the contralateral limb served as the control in all subsequent experiments. After casting, rats were housed individually and were continued to be pair-fed for a period of 7 days. Water was provided ad libitum. On day 7 after casting, rats were anesthetized with pentobarbital and the cast atraumatically and rapidly (<2 min) removed (Stryker Instruments, Kalamzoo, Mich.).

[6] = supplemented diet, means ± SEM, all studies combined

CC(C)CC(O)C(=O)O (stereo not drawn) [HICA, α-hydroxy-isocaproic acid]
Increment in protein synthesis in the previously immobilized muscle ([1]; after a 7-day recovery period, not statistically significant versus control-fed rats): 0.77±0.17 nmol Phe/h/mg protein
Protein synthesis in the previously immobilized muscle compared to contralateral uncasted muscle ([1]; day 14 of recovery): still increased
Increment in muscle protein synthesis compared to other groups ([1]; day 14 of recovery, failed to achieve statistical significance): tended to be increased
In-vivo-determined tissue protein synthesis: Liver ([1]; freely fed rats, means ± SEM, all studies combined, no unit in table): 24.41 ± 0.90
In-vivo-determined tissue protein synthesis: Heart ([1]; freely fed rats, means ± SEM, all studies combined, no unit in table (text b163: nmol Phe/h/mg protein)): 2.76 ± 0.11
Immobilization (casting)-induced decrease in muscle protein synthesis [1]: no immobilization-induced decrease
Immobilization (casting)-induced decrease in muscle protein synthesis ([1]; listed as αHICA): prevented the casting-induced decrease in muscle protein synthesis
In-vivo-determined tissue protein synthesis: GAstrocnemius (control) ([1]; uncasted control muscle, means ± SEM, all studies combined, no unit in table): 1.26 ± 0.04
Basal rate of protein synthesis in uncasted muscle, lower than control-fed rats ([1]; uncasted gastrocnemius): 10%
Insulin ([2]; ELISA, means ± SEM): 1.90 ± 0.15 a ng/ml
HOMA-IR (homeostatic model assessment of insulin resistance) ([2]; calculated from insulin and glucose, means ± SEM): 27.1 ± 3.2 a
Triglycerides ([2]; means ± SEM): 609 ± 51 µmol/L
Markers of renal function (creatinine and BUN) compared to control values ([2]; rat, in vivo): generally unaffected
Serum insulin concentration compared to control rats ([2]; rat, in vivo): did not differ
ALT ([2]; serum, means ± SEM): 24 ± 1 U/L
AST ([2]; serum, means ± SEM): 74 ± 4 U/L
Albumin ([2]; serum, means ± SEM): 3.31 ± 0.04 g/dL
BUN ([2]; serum, means ± SEM): 16.2 ± 0.6a mg/dL
Bilirubin, total ([2]; serum, means ± SEM): 0.5 ± 0.04 mg/dL
Calcium ([2]; serum, means ± SEM): 9.5 ± 0.1 mg/dL
Chloride ([2]; serum, means ± SEM): 101 ± 1 mmol/L
Cholesterol ([2]; serum, means ± SEM): 62 ± 3 mg/dL
Creatinine ([2]; serum, means ± SEM): 0.3 ± 0.02 mg/dL
Glucose ([2]; serum, means ± SEM): 223 ± 11 mg/dL
LDH ([2]; serum, means ± SEM): 232 ± 23 U/L
Phosphorous ([2]; serum, means ± SEM): 5.8 ± 0.2a mg/dL
Potassium ([2]; serum, means ± SEM): 4.9 ± 0.1a mmol/L
Protein, total ([2]; serum, means ± SEM): 5.0 ± 0.1 g/dL
Sodium ([2]; serum, means ± SEM, all studies combined): 141 ± 1 mmol/L
Deleterious effects on whole-body and tissue-specific metabolic and hematological parameters ([2]; supplementation for up to 3 wks): no apparent deleterious effects
Hematocrit ([3]; blood): 40 ± 1%
Hemoglobin ([3]; blood): 15.2 ± 0.5 g/dL
Lymphocytes ([3]; blood): 70 ± 2%
MCH ([3]; blood): 17.9 ± 0.1 pg
MCV ([3]; blood): 47 ± 1 fL
Neutrophils ([3]; blood): 24 ± 2%
Platelets ([3]; blood): 1207 ± 60 103/μl
RBC ([3]; blood): 8.49 ± 0.31 106/μl
WBC ([3]; blood): 2.5 ± 0.2 103/μl
Protime (prothrombin time) ([3]; citrated blood): 19 ± 1 s
Muscle regrowth (gastrocnemius mass) 7 days after removal of the cast ([4]; 7 days immobilization + 7 days recovery, compared to control diet): not altered
Decrease in gastrocnemius mass by immobilization ([4]; 7 days of cast immobilization, versus contralateral uncasted limb): 0.61 ± 0.09 g
Mass of previously immobilized gastrocnemius compared to contralateral uncasted muscle ([4]; recovery day 14): did not differ; also recorded: complete recovery of mass
Prevention or amelioration of the reduction in muscle mass produced by disuse ([4]; unilateral hindlimb immobilization): failed to prevent or ameliorate the accompanying reduction in muscle mass
Organ weight: Liver ([5]; diet with α-HICA 50.4 g/kg or leucine 50 g/kg, means ± SEM, data combined from all studies): 12.00 ± 0.35 g
Kidney weight compared between diets ([5]; rat, in vivo): did not differ
Organ weight: Adrenal [5, 6]: 403 ± 16 mg
Organ weight: Kidney [5, 6]: 1.22 ± 0.03 g
Organ weight: Spleen [5, 6]: 960 ± 37 mg
Organ weight: Testes [5, 6]: 1.82 ± 0.03 g
Organ weight: Heart ([5]; ventricle only, supplemented diet, means ± SEM, all studies combined): 1.13 ± 0.02 g
